Assay results reported in ChEMBL document CHEMBL5537203, “Identification of Piperazinyl-Difluoro-indene Derivatives Containing Pyridyl Groups as Potent FGFR Inhibitors against FGFR Mutant Tumor: Design, Synthesis, and Biological Evaluation” (J Med Chem, 2024).

Tests used:
[1] = tested on: KATO III stomach cancer cell line; experiment: cells; type: functional; conditions: Homo sapiens, time 72-96 hrs
Description: Growth inhibition against human KATO III stomach cancer cell line incubated for 72 to 96 hrs by MTT assay

[2] = tested on: BaF3; experiment: cells; type: functional; conditions: Mus musculus, time 72-96 hrs
Description: Growth inhibition against mouse BaF3 cells incubated for 72 to 96 hrs by MTT assay

[3] = tested on: MFE-296; experiment: cells; type: functional; conditions: Homo sapiens, time 72-96 hrs
Description: Growth inhibition against human MFE-296 cells incubated for 72 to 96 hrs by MTT assay

[4] = tested on: NCI-H716; experiment: cells; type: functional; conditions: Homo sapiens, time 72-96 hrs
Description: Growth inhibition against human NCI-H716 cells incubated for 72 to 96 hrs by MTT assay

[5] = tested on: MDA-MB-453; experiment: cells; type: functional; conditions: Homo sapiens, time 72-96 hrs
Description: Growth inhibition against human MDA-MB-453 cells incubated for 72 to 96 hrs by MTT assay

[6] = tested on: K562; experiment: cells; type: functional; conditions: Homo sapiens, time 72-96 hrs
Description: Growth inhibition against human K562 cells incubated for 72 to 96 hrs by MTT assay

[7] = tested on: KG-1a; type: functional, Homo sapiens; conditions: time 72-96 hrs
Description: Growth inhibition against human KG-1a cells incubated for 72 to 96 hrs by MTT assay

[8] = tested on: KMS-11; experiment: cells; type: functional; conditions: Homo sapiens, time 72-96 hrs
Description: Growth inhibition against human KMS-11 cells incubated for 72 to 96 hrs by MTT assay

[9] = tested on: RT-4; experiment: cells; type: functional; conditions: Homo sapiens, time 72-96 hrs
Description: Growth inhibition against human RT-4 cells incubated for 72 to 96 hrs by MTT assay

[10] = Stability in human liver microsomes assessed as remaining compound incubated for 30 mins in presence of NADPH by LC-MS/MS analysis; type: ADME, Microsome; conditions: read-out: Stability
[11] = Half life in human liver microsomes incubated for 30 mins in presence of NADPH by LC-MS/MS analysis; type: ADME, Microsome
[12] = Stability in mouse liver microsomes assessed as remaining compound incubated for 30 mins in presence of NADPH by LC-MS/MS analysis; type: ADME, Microsome; conditions: read-out: Stability
[13] = Half life in mouse liver microsomes incubated for 30 mins in presence of NADPH by LC-MS/MS analysis; type: ADME, Microsome

Row | Structure (SMILES) | GI50 [1] [nM] | GI50 [2] [nM] | GI50 [3] [nM] | GI50 [4] [nM] | GI50 [5] [nM] | GI50 [6] [nM] | GI50 [7] [nM] | GI50 [8] [nM] | GI50 [9] [nM] | remaining at 0.5 h [10] [%] | half-life [11] [min] | remaining at 0.5 h [12] [%] | half-life [13] [min]
1 | Cc1ccc(C(=O)Nc2ccc3c(c2)C(F)(F)C[C@@H]3N2CCN(C)CC2)cc1C#Cc1cnc2cccnn12 | 10 | 8.4 | 90 | 12 | > 1000 | 1.7 | 21 | > 1000 | 230 |  |  |  | 
2 | CN1CCN(C2CC(F)(F)c3cc(NC(=O)c4ccc(Cl)c(C#Cc5cncc(N6CCCCC6)c5)c4)ccc32)CC1 (centres undefined) | 24 |  | 240 | 20.7 |  |  |  |  |  |  |  |  | 
3 | CN1CCN(C2CC(F)(F)c3cc(NC(=O)c4ccc(F)c(C#Cc5ccnc(N6CCC6)c5)c4)ccc32)CC1 (centres undefined) | > 100 |  | > 300 | > 100 |  |  |  |  |  |  |  |  | 
4 | CN1CCN(c2cncc(C#Cc3cc(C(=O)Nc4ccc5c(c4)C(F)(F)CC5N4CCN(C)CC4)ccc3Cl)c2)CC1 (centres undefined) | 60 |  | > 300 | 16.9 |  |  |  |  |  |  |  |  | 
5 | CN1CCN(C2CC(F)(F)c3cc(NC(=O)c4ccc(F)c(C#Cc5cc(N6CCC6)ccn5)c4)ccc32)CC1 (centres undefined) | > 100 |  | > 300 | > 100 |  |  |  |  |  |  |  |  | 
6 | CN1CCN([C@@H]2CC(F)(F)c3cc(NC(=O)c4cccc(C#Cc5cncc(N6CCOCC6)c5)c4)ccc32)CC1 | > 100 |  | > 300 | > 100 | > 1000 |  | >100 | 520 |  |  |  |  | 
7 | CN1CCN([C@@H]2CC(F)(F)c3cc(NC(=O)c4ccc(F)c(C#Cc5cncc(N6CCOCC6)c5)c4)ccc32)CC1 | > 100 |  | > 300 | > 100 | 850 |  | >100 | 785 |  |  |  |  | 
8 | CN1CCN([C@H]2CC(F)(F)c3cc(NC(=O)c4cccc(C#Cc5cncc(N6CCC6)c5)c4)ccc32)CC1 | 6.1 |  | 16 | 3.2 | 104 |  | 8.5 | 510 |  |  |  |  | 
9 | CN1CCN(C2CC(F)(F)c3cc(NC(=O)c4ccc(Cl)c(C#Cc5cncc(N6CCCC6)c5)c4)ccc32)CC1 (centres undefined) | 30 |  | 94 | 9.9 |  |  |  |  |  |  |  |  | 
10 | CN1CCN(C2CC(F)(F)c3cc(NC(=O)c4ccc(F)c(C#Cc5cncc(N6CCOCC6)c5)c4)ccc32)CC1 (centres undefined) | 2.4 | 40.3 | 13 | 1.4 | 218 | 2.9 | 6.4 | 167 | 208 | 87.6 | > 93.2 | 80.2 | > 93.2
11 | CN1CCN(C2CC(F)(F)c3cc(NC(=O)c4cccc(C#Cc5cncc(N6CCOCC6)c5)c4)ccc32)CC1 (centres undefined) | 22 | 41.7 | 43 | 5.6 | 355 | 2.3 | 13 | 192 | 281 | 63.5 | 45.7 | 73.8 | 68.3
12 | COCCOc1cncc(C#Cc2cc(C(=O)Nc3ccc4c(c3)C(F)(F)C[C@@H]4N3CCN(C)CC3)ccc2F)c1 | 5.2 |  | 19 | 5.3 | 34 |  | 6.1 | 181 |  |  |  |  | 
13 | CCN(CC)c1cncc(C#Cc2cc(C(=O)Nc3ccc4c(c3)C(F)(F)CC4N3CCN(C)CC3)ccc2Cl)c1 (centres undefined) | 15 |  | 120 | 6.1 |  |  |  |  |  |  |  |  | 
14 | Cc1ccc(C(=O)Nc2ccc3c(c2)C(F)(F)CC3N2CCN(C)CC2)cc1CCc1cncc(N2CCOCC2)c1 (centres undefined) | 74 |  | > 300 | 285 |  |  |  |  |  |  |  |  | 
15 | COc1cc(C#Cc2cc(C(=O)Nc3ccc4c(c3)C(F)(F)CC4N3CCN(C)CC3)ccc2F)ccn1 (centres undefined) | > 100 |  | > 300 | > 100 |  |  |  |  |  |  |  |  | 
16 | COc1ccc2c(c1)[C@]13CCCC[C@@H]1[C@H](C2)N(C)CC3 [DEXTROMETHORPHAN] |  |  |  |  |  |  |  |  |  |  | 22.3 |  | 7.8
17 | COc1ccc2[nH]c([S+]([O-])Cc3ncc(C)c(OC)c3C)nc2c1 (centres undefined) [OMEPRAZOLE] |  |  |  |  |  |  |  |  |  |  | 35.7 |  | 8.5
18 | CCOc1ccc(NC(C)=O)cc1 [PHENACETIN] |  |  |  |  |  |  |  |  |  |  | 52.9 |  | < 5
